{
  "source": "patent US20250002855A1",
  "about": "“METHODS FOR EXPANDING T CELLS FOR THE TREATMENT OF CANCER AND RELATED MALIGNANCIES” (Immatics US, Inc., priority 2020, published 2025)",
  "key": {"[1]": {"test_system": "tumor-infiltrating lymphocytes", "conditions": "in the presence of IL-21; after 2 weeks of culture; cited from earlier work"}, "γδ T cells": {"test_system": "γδ T cells", "test": "δ1 and δ2 populations by flow cytometry", "format": "cell-based, human", "conditions": "Day 21; culture without vs with zoledronate (5 μM)", "from_the_text": "Cells were harvested on Day 21 and analyzed by flow cytometry to determine δ1 and δ2 populations.\nThe presence of δ1 cells as a percentage of live cells is shown for two donors in FIG. 18A & 18B."}},
  "data": [
    {"smiles": "O=C(CCCCCCC(=O)Nc1ccccc1)NO", "note": "[SAHA, suberoylanilide hydroxamic acid]", "values": [
      {"measurement": "Tcm αβ T cells (CD28+CD62L+)", "setting": "[1]", "value": "increase Tcm αβ T cells"}
    ]},
    {"smiles": "O=P(O)(O)C(O)(Cn1ccnc1)P(=O)(O)O", "note": "[zoledronate]", "values": [
      {"measurement": "δ1 and δ2 populations", "setting": "γδ T cells", "value": "lack of zoledronate in the culture results in a polyclonal population"}
    ]}
  ]
}
